Laboratory results reported in patent publication US20250051347A1, “BIFUNCTIONAL CHIMERIC HETEROCYCLIC COMPOUND AND USE THEREOF AS ANDROGEN RECEPTOR DEGRADER” (Hinova Pharmaceuticals, Inc., priority 2021, published 2025).

Target: T1, androgen receptor (AR) splicing variant AR-v7 (Homo sapiens, UniProt P10275)
T1 construct: The degradation activity of compounds on AR-v7 in 22RV1 cells; host or cells: 22RV1 cells
T1 sequence (P10275 1-644 isoform P10275-3): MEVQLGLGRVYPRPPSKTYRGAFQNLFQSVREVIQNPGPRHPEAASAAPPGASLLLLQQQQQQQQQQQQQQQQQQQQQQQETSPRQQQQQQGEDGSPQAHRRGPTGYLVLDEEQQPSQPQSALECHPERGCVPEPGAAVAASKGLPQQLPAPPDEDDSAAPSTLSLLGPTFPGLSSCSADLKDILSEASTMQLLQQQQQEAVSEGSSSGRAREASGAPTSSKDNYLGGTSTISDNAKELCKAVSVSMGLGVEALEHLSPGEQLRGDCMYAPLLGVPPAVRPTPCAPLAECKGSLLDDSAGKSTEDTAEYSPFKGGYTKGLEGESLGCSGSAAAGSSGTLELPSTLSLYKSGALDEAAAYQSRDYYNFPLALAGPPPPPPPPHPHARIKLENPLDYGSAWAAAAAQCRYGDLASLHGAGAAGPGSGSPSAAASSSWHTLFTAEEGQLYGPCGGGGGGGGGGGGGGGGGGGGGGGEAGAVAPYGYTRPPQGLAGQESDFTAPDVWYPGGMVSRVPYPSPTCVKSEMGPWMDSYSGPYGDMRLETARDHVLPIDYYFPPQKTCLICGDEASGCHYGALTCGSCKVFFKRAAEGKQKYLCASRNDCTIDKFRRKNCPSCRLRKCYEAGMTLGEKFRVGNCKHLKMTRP
Experiment: Degradation activity on androgen receptor splicing variant AR-v7 in 22RV1 cells (ELISA)
Type: cell-based
Details: AR-v7 degradation in 22RV1 cells, 48 h

DC50 (class symbols) [µM]	DC50 (numeric values) [µM]	SMILES
0.011 to 0.1	–	CC(O)c1ncc(Oc2ccc(C(C)(C)c3ccc(OC[C@@H]4CCN4c4ccc5c(c4)C(=O)N(C4CCC(=O)NC4=O)C5=O)cc3)cc2)cn1 (stereo partly shown) [Example 340]
0.011 to 0.1	–	CC(=O)c1ncc(Oc2ccc(C(C)(C)c3ccc(OC[C@@H]4CCN4c4ccc5c(c4)C(=O)N(C4CCC(=O)NC4=O)C5=O)cc3)cc2)cn1 (stereo partly drawn) [Example 341, 5-((S)-2-((4-(2-(4-((2-acetylpyrimidin-5-yl)oxy)phenyl)propan-2-yl)phenoxy)methyl)azetidin-1-yl)-2-(2,6-dioxopiperidin-3-yl)isoindolin-1,3-dione]
–	> 10	CC(=O)c1nccc(COc2ccc(C(C)(C)c3ccc(OCCCCCNc4ccc5c(c4)C(=O)N(C4CCC(=O)NC4=O)C5=O)cc3)cc2)n1 (stereo not shown) [Example 342, 5-((5-(4-(2-(4-((2-acetylpyrimidin-4-yl)methoxy)phenyl)isopropan-2-yl)phenoxy)pentyl)amino)-2-(2,6-dioxopiperidin-3-yl)isoindolin-1,3-dione]
1 to 5	–	CC(=O)c1nccc(COc2ccc(C(C)(C)c3ccc(OCCCNc4cccc5c4C(=O)N(C4CCC(=O)NC4=O)C5=O)cc3)cc2)n1 (stereo not shown) [Example 344, 4-((3-(4-(2-(4-((2-acetylpyrimidin-4-yl)methoxy)phenyl)isopropan-2-yl)phenoxy)propyl)amino)-2-(2,6-dioxopiperidin-3-yl)isoindolin-1,3-dione]
1 to 5	–	CC(O)c1nccc(COc2ccc(C(C)(C)c3ccc(OCCCNc4cccc5c4C(=O)N(C4CCC(=O)NC4=O)C5=O)cc3)cc2)n1 (stereo not shown) [Example 346, 2-(2,6-dioxopiperidin-3-yl)-4-((3-(4-(2-(4-((2-(1-hydroxylethyl)pyrimidin-4-yl)methoxy)phenyl)isopropan-2-yl)phenoxy)propyl)amino)isoindolin-1,3-dione]
1 to 5	–	CC(=O)c1cc(COc2ccc(C(C)(C)c3ccc(OCCCCCCCCOCCCCNc4ccc5c(c4)C(=O)N(C4CCC(=O)NC4=O)C5=O)cc3)cc2)ccn1 (stereo not shown) [Example 347, 5-((4-((8-(4-(2-(4-((2-acetylpyridin-4-yl)methoxy)phenyl)isopropan-2-yl)phenoxy)octyl)oxy)butyl)amino)-2-(2,6-dioxopiperidin-3-yl)isoindolin-1,3-dione]
1 to 5	–	CC(=O)c1cc(COc2ccc(C(C)(C)c3ccc(OCCCCCCCCOCCCCNc4cccc5c4C(=O)N(C4CCC(=O)NC4=O)C5=O)cc3)cc2)ccn1 (stereo not shown) [Example 348, 4-((4-((8-(4-(2-(4-((2-acetylpyridin-4-yl)methoxy)phenyl)isopropan-2-yl)phenoxy)octyl)oxy)butyl)amino)-2-(2,6-dioxopiperidin-3-yl)isoindolin-1,3-dione]
–	> 10	CC(=O)c1cccc(COc2ccc(C(C)(C)c3ccc(OCCCCCCCCOCCCCNc4ccc5c(c4)C(=O)N(C4CCC(=O)NC4=O)C5=O)cc3)cc2)n1 (stereo not shown) [Example 349, 5-((4-((8-(4-(2-(4-((6-acetylpyridin-2-yl)methoxy)phenyl)isopropan-2-yl)phenoxy)octyl)oxy)tert-butyl)amino)-2-(2,6-dioxopiperidin-3-yl)isoindolin-1,3-dione]
0.011 to 0.1	–	NC(=O)c1noc(COc2ccc(C3(c4ccc(OCCCNc5ccc6c(c5)C(=O)N(C5CCC(=O)NC5=O)C6=O)cc4)CCC3)cc2)n1 (stereo not shown) [Example 352, 5-((4-(1-(4-(3-((2-(2,6-dioxopiperidin-3-yl)-1,3-dioxoisoindolin-5-yl)amino)propoxy)phenyl)cyclobutyl)phenoxy)methyl)-1,2,4-oxadiazol-3-carbonylamine]
1 to 5	–	CC(=O)c1nccc(COc2ccc(C(C)(C)c3ccc(O[C@H]4CC[C@H](Nc5ccc6c(c5)C(=O)N(C5CCC(=O)NC5=O)C6=O)CC4)cc3)cc2)n1 (stereo partly shown) [Example 353, 5-(((1r,4r)-4-(4-(2-(4-((2-acetylpyrimidin-4-yl)methoxy)phenyl)isopropan-2-yl)phenoxy)cyclohexyl)amino)-2-(2,6-dioxopiperidin-3-yl)isoindolin-1,3-dione]
1 to 5	–	CC(O)c1nccc(COc2ccc(C(C)(C)c3ccc(O[C@H]4CC[C@H](Nc5ccc6c(c5)C(=O)N(C5CCC(=O)NC5=O)C6=O)CC4)cc3)cc2)n1 (stereo partly shown) [Example 354, 2-(2,6-dioxopiperidin-3-yl)-5-(((1r,4r)-4-(4-(2-(4-((2-(1-hydroxylethyl)pyrimidin-4-yl)methoxy)phenyl)isopropan-2-yl)phenoxy)cyclohexyl)amino)isoindolin-1,3-dione]
0.011 to 0.1	–	CC(C)(c1ccc(OCc2ccnc(OC3CCOCC3)n2)cc1)c1ccc(O[C@H]2C[C@H](Nc3ccc4c(c3)C(=O)N(C3CCC(=O)NC3=O)C4=O)C2)cc1 (stereo partly shown) [Example 368, 2-(2,6-dioxopiperidin-3-yl)-5-(((1r,3r)-3-(4-(2-(4-((2-((tetrahydro-2H-pyran-4-yl)oxy)pyrimidin-4-yl)methoxy)phenyl)isopropan-2-yl)phenoxy)cyclobutyl)amino)isoindolin-1,3-dione]
0.011 to 0.1	–	O=C1CCC(N2C(=O)c3ccc(N[C@H]4C[C@H](Oc5ccc(C6(c7ccc(Oc8ccc(-n9nccn9)nn8)cc7)CC6)cc5)C4)cc3C2=O)C(=O)N1 (stereo partly shown) [Example 374, 5-(((1r,3r)-3-(4-(1-(4-((6-(2H-1,2,3-triazole-2-yl)pyridazine-3-yl)oxy)phenyl)cyclopropyl)phenoxy)cyclobutyl)amino)-2-(2,6-dioxopiperidin-3-yl)isoindolin-1,3-dione]
0.011 to 0.1	–	O=C1CCC(N2C(=O)c3ccc(N[C@H]4C[C@H](Oc5ccc(C6(c7ccc(Oc8ccc(-n9ccnn9)nn8)cc7)CC6)cc5)C4)cc3C2=O)C(=O)N1 (stereo partly shown) [Example 375, 5-(((1r,3r)-3-(4-(1-(4-((6-(1H-1,2,3-triazole-1-yl)pyridazine-3-yl)oxy)phenyl)cyclopropyl)phenoxy)cyclobutyl)amino)-2-(2,6-dioxopiperidin-3-yl)isoindolin-1,3-dione]
0.011 to 0.1	–	Cc1nc(-c2ccc(Oc3ccc(C4(c5ccc(O[C@H]6C[C@H](Nc7ccc8c(c7)C(=O)N(C7CCC(=O)NC7=O)C8=O)C6)cc5)CC4)cc3)nn2)no1 (stereo partly shown) [Example 376, 2-(2,6-dioxopiperidin-3-yl)-5-(((1r,3r)-3-(4-(1-(4-((6-(5-methyl-1,2,4-oxadiazol-3-yl)pyridazine-3-yl)oxy)phenyl)cyclopropyl)phenoxy)cyclobutyl)amino)isoindolin-1,3-dione]
0.011 to 0.1	–	CCOC(=O)c1ncc(Oc2ccc(C(C)(C)c3ccc(O[C@H]4C[C@H](Nc5ccc6c(c5)C(=O)N(C5CCC(=O)NC5=O)C6=O)C4)cc3)cc2)cn1 (stereo partly shown) [Example 381, ethyl 5-(4-(2-(4-((1r,3r)-3-((2-(2,6-dioxopiperidin-3-yl)-1,3-dioxoisoindolin-5-yl)amino)cyclobutyloxy)phenyl)isopropan-2-yl)phenoxy)pyrimidin-2-carboxylate]
–	> 5	CN1CCC2(CCN(c3nccc(COc4ccc(C(C)(C)c5ccc(OCCCCCCCCOCCCCNc6ccc7c(c6)C(=O)N(C6CCC(=O)NC6=O)C7=O)cc5)cc4)n3)C2)C1 (stereo not shown) [Example 384]
–	> 2	CC(=O)c1ncc(COc2ccc(C(C)(C)c3ccc(OCCCCCCCCOCCCCNc4ccc5c(c4)C(=O)N(C4CCC(=O)NC4=O)C5=O)cc3)cc2)cn1 (stereo not shown) [Example 385, 5-((4-((8-(4-(2-(4-((2-acetylpyrimidin-5-yl)methoxy)phenyl)propan-2-yl)phenoxy)octyl)oxy)butyl)amino)-2-(2,6-dioxopiperidin-3-yl)isoindol-1,3-dione]
1 to 5	–	CC(=O)c1nccc(COc2ccc(C(C)(C)c3ccc(OCCCCCCCCCNc4cccc5c4C(=O)N(C4CCC(=O)NC4=O)C5=O)cc3)cc2)n1 (stereo not shown) [Example 386, 4-((9-(4-(2-(4-((2-acetylpyrimidin-4-yl)methoxy)phenyl)propan-2-yl)phenoxy)nonyl)amino)-2-(2,6-dioxopyridin-3-yl)isoindol-1,3-dione]
0.011 to 0.1	–	CC(C)(c1ccc(OCCCNc2ccc3c(c2)C(=O)N(C2CCC(=O)NC2=O)C3=O)cc1)c1ccc(OCc2ccnc(-n3cccn3)n2)cc1 (stereo not shown) [Example 387, 5-((3-(4-(2-(4-((2-(1H-pyrazol-1-yl)pyrimidin-4-yl)methoxy)phenyl)propan-2-yl)phenoxy)propyl)amino)-2-(2,6-dioxopiperidin-3-yl)isoindol-1,3-dione]
0.011 to 0.1	–	CC(C)(c1ccc(OCCCNc2ccc3c(c2)C(=O)N(C2CCC(=O)NC2=O)C3=O)cc1)c1ccc(OCc2nc(C(N)=O)co2)cc1 (stereo not shown) [Example 388]
0.011 to 0.1	–	CC(C)(c1ccc(OCc2ccnc(N3CCOCC3)n2)cc1)c1ccc(OC2CC(Nc3ccc4c(c3)C(=O)N(C3CCC(=O)NC3=O)C4=O)C2)cc1 (stereo not shown) [Example 394]
0.011 to 0.1	–	CN[C@@H]1CCCN(c2nccc(COc3ccc(C(C)(C)c4ccc(O[C@H]5C[C@@H](Nc6ccc7c(c6)C(=O)N(C6CCC(=O)NC6=O)C7=O)C5)cc4)cc3)n2)C1 (stereo partly shown) [Example 401]
0.011 to 0.1	–	CN(C)[C@@H]1CCCN(c2nccc(COc3ccc(C(C)(C)c4ccc(O[C@H]5C[C@@H](Nc6ccc7c(c6)C(=O)N(C6CCC(=O)NC6=O)C7=O)C5)cc4)cc3)n2)C1 (stereo partly shown) [Example 402]
0.011 to 0.1	–	CN[C@H]1CCCN(c2nccc(COc3ccc(C(C)(C)c4ccc(O[C@H]5C[C@@H](Nc6ccc7c(c6)C(=O)N(C6CCC(=O)NC6=O)C7=O)C5)cc4)cc3)n2)C1 (stereo partly shown) [Example 403]
